The source of these data is article PMC6274180, “Investigating Glycol-Split-Heparin-Derived Inhibitors of Heparanase: A Study of Synthetic Trisaccharides” (Molecules, 2016).

Molecules are shown by their SMILES. pIC50: −log10 of the molar value.

For orientation: pIC50 means the negative decadic logarithm of the IC50, by convention in mol/L. Higher therefore signals a low IC50.

This test addresses T1, heparanase (Homo sapiens, UniProt Q9Y251).
T1 construct: gene HPSE
T1 sequence (Q9Y251 36-109): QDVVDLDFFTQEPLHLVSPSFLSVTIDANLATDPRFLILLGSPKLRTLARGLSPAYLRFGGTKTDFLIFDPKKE
T1 sequence (Q9Y251 158-543): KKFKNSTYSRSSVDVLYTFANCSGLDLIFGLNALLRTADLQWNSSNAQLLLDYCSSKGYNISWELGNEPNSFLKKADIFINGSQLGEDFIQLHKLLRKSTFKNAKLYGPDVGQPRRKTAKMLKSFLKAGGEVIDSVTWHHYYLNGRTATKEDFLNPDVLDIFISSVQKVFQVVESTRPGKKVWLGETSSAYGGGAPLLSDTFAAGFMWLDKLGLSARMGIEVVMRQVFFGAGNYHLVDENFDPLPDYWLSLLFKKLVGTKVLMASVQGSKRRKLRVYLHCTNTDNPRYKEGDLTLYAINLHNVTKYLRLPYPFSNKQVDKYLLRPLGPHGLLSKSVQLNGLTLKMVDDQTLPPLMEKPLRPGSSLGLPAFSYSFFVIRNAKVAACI
Description: in vitro colorimetric (WST-1) heparanase inhibition assay with fondaparinux as substrate. It is filed as biochemical. A general note: Tetrazolium assays rely on reduction of a dye to a coloured formazan, in cell work by metabolically active cells.

As to `CO[C@H]1[C@H](O)[C@@H](NS(=O)(=O)O)[C@@H](O[C@H]2[C@H](O)[C@@H](O)[C@H](O[C@H]3[C@H](O)[C@@H](NS(=O)(=O)O)[C@@H]4OC[C@H]3O4)O[C@@H]2C(=O)O)O[C@@H]1COS(=O)(=O)O` [compound 1], the negative-log IC50 (pIC50) is 4.40.

Compound `CO[C@H]1[C@H](O)[C@@H](NS(=O)(=O)O)[C@@H](O[C@@H](CO)[C@H](O[C@H](CO)O[C@H]2[C@H](O)[C@@H](NS(=O)(=O)O)[C@@H]3OC[C@H]2O3)C(=O)O)O[C@@H]1COS(=O)(=O)O` [compound 2, sodium(2S,3S)-4-hydroxy-2-((R)-2-hydroxy-1-(((1R,2S,3R,4R,5R)-3-hydroxy-4-(sulfonatoamino)-6,8-dioxabicyclo[3.2.1]octan-2-yl)oxy)ethoxy)-3-(((2R,3R,4R,5S,6R)-4-hydroxy-5-methoxy-3-(sulfonatoamino)-6-((sulfonatooxy)methyl)tetrahydro-2H-pyran-2-yl)oxy)butanoate] gave a negative logarithm of the IC50 (pIC50) of 5.58.
